In ChEMBL document CHEMBL1201862, “PubChem BioAssay data set” (2004):
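Step 1: Grow cells in 96-well plates. Step 2: Expose to compound for 48 hours at 5 concentrations. Step 3: Interpolate endpoints linearly; if unreached, use highest concentration. The concentration for 50% growth inhibition is given as GI50.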 Activity calls are given as the source filed them. Cut-off read from the data, not from the text of the source: active = GI50 up to about 1.1 µM and inactive = higher.

Columns and labels:
Assay in all cases: DTP human tumour cell line panel, 48 h
DLD-1 = test system: DLD-1
DMS-273 = test system: DMS-273
HOP-18 = test system: HOP-18
KM-20L2 = test system: KM-20L2
M19-MEL = test system: M19-MEL
SNB-78 = test system: SNB-78
XF498 = test system: XF498
LXFL 529 = test system: LXFL 529
RXF 631 = test system: RXF 631

C=C(C)CC(C(=O)O)c1ccc(C)cc1 (stereo not given)
GI50 (DLD-1): > 100 µM (inactive)
GI50 (DMS-273): > 100 µM (inactive)
GI50 (HOP-18): > 100 µM (inactive)
GI50 (KM-20L2): > 100 µM (inactive)
GI50 (M19-MEL): > 100 µM (inactive)
GI50 (SNB-78): > 100 µM (inactive)
GI50 (XF498): > 100 µM (inactive)

OCCCCCNc1ccnc2cc(Cl)ccc12
GI50 (DLD-1): > 100 µM (inactive)
GI50 (DMS-273): > 100 µM (inactive)
GI50 (HOP-18): > 100 µM (inactive)
GI50 (KM-20L2): > 100 µM (inactive)
GI50 (LXFL 529): > 100 µM (inactive)
GI50 (M19-MEL): > 100 µM (inactive)
GI50 (SNB-78): > 100 µM (inactive)
GI50 (XF498): > 100 µM (inactive)

COc1cc(Nc2nc3cc(C(F)(F)F)ccc3nc2-c2ccccc2)cc(OC)c1OC
GI50 (DLD-1): > 100 µM (inactive)
GI50 (DMS-273): 22.8 µM (inactive)
GI50 (LXFL 529): > 100 µM (inactive)
GI50 (RXF 631): 61.8 µM (inactive)
GI50 (SNB-78): 46.2 µM (inactive)
GI50 (XF498): 32.5 µM (inactive)

NC(=O)/N=C1\NC(Cc2ccccc2)C(=O)N1Cc1ccccc1 (stereo not given)
GI50 (DLD-1): > 100 µM (inactive)
GI50 (DMS-273): > 100 µM (inactive)
GI50 (KM-20L2): > 100 µM (inactive)
GI50 (LXFL 529): > 100 µM (inactive)
GI50 (M19-MEL): > 100 µM (inactive)
GI50 (SNB-78): > 100 µM (inactive)
GI50 (XF498): 35.6 µM (inactive)

CCN1C(=O)/C(=C\c2coc3ccccc3c2=O)SC1=S
GI50 (DLD-1): > 100 µM (inactive)
GI50 (DMS-273): 59 µM (inactive)
GI50 (HOP-18): 80.4 µM (inactive)
GI50 (KM-20L2): > 100 µM (inactive)
GI50 (LXFL 529): > 100 µM (inactive)
GI50 (M19-MEL): > 100 µM (inactive)
GI50 (SNB-78): 56.8 µM (inactive)
GI50 (XF498): 40 µM (inactive)

Cc1c2ncccc2c(C)c2c1[nH]c1ccccc12
GI50 (DLD-1): 10.1 µM (inactive)
GI50 (DMS-273): 4.84 µM (inactive)
GI50 (HOP-18): 14.2 µM (inactive)
GI50 (KM-20L2): 7.11 µM (inactive)
GI50 (LXFL 529): 11 µM (inactive)
GI50 (M19-MEL): 13.4 µM (inactive)
GI50 (SNB-78): 14.6 µM (inactive)
GI50 (XF498): 12.8 µM (inactive)

S=C1OC2CCCC[C@H]2O1 (stereo not given in full)
GI50 (DLD-1): > 100 µM (inactive)
GI50 (DMS-273): > 100 µM (inactive)
GI50 (HOP-18): > 100 µM (inactive)
GI50 (KM-20L2): > 100 µM (inactive)
GI50 (LXFL 529): > 100 µM (inactive)
GI50 (M19-MEL): > 100 µM (inactive)
GI50 (RXF 631): > 100 µM (inactive)
GI50 (SNB-78): > 100 µM (inactive)
GI50 (XF498): > 100 µM (inactive)

Sc1nnc(-c2ccccc2)n1/N=C\c1ccc(-c2ccc(Cl)cc2)o1
GI50 (DLD-1): > 100 µM (inactive)
GI50 (KM-20L2): > 100 µM (inactive)
GI50 (LXFL 529): > 100 µM (inactive)
GI50 (M19-MEL): > 100 µM (inactive)
GI50 (SNB-78): > 100 µM (inactive)

CN(C)CC1CCCC/C1=N/OC(=O)c1ccc(Cl)c(Cl)c1 (stereo not given)
GI50 (DLD-1): > 100 µM (inactive)
GI50 (DMS-273): > 100 µM (inactive)
GI50 (HOP-18): > 100 µM (inactive)
GI50 (KM-20L2): > 100 µM (inactive)
GI50 (LXFL 529): > 100 µM (inactive)
GI50 (M19-MEL): > 100 µM (inactive)
GI50 (RXF 631): > 100 µM (inactive)

CCOc1cccc2cccnc12
GI50 (DLD-1): > 100 µM (inactive)
GI50 (HOP-18): 57.5 µM (inactive)
GI50 (KM-20L2): > 100 µM (inactive)
GI50 (LXFL 529): > 100 µM (inactive)
GI50 (XF498): > 100 µM (inactive)

Nc1ccc2c(c1)CC1c3ccccc3C(C2)c2ccccc21
GI50 (DLD-1): > 100 µM (inactive)
GI50 (DMS-273): > 100 µM (inactive)
GI50 (HOP-18): > 100 µM (inactive)
GI50 (KM-20L2): > 100 µM (inactive)
GI50 (LXFL 529): > 100 µM (inactive)
GI50 (M19-MEL): > 100 µM (inactive)
GI50 (SNB-78): > 100 µM (inactive)

CNC(=O)NC(CCCCNC(=O)OCc1ccccc1)C(=O)OCc1ccccc1 (stereo not given)
GI50 (DLD-1): > 100 µM (inactive)
GI50 (DMS-273): 35.9 µM (inactive)
GI50 (KM-20L2): > 100 µM (inactive)
GI50 (LXFL 529): 33.9 µM (inactive)
GI50 (M19-MEL): 17 µM (inactive)
GI50 (SNB-78): 33.4 µM (inactive)
GI50 (XF498): 15.2 µM (inactive)

CC(=O)ON(C(C)=O)C1C(COC(c2ccccc2)(c2ccccc2)c2ccccc2)OC2OC3(CCCC3)OC21 (stereo not given)
GI50 (DLD-1): 5.32 µM (inactive)
GI50 (DMS-273): 3.57 µM (inactive)
GI50 (HOP-18): 49.3 µM (inactive)
GI50 (KM-20L2): 5.19 µM (inactive)
GI50 (M19-MEL): 6.62 µM (inactive)
GI50 (XF498): 5.19 µM (inactive)

CN(C)CN(C)c1nc(N(C)C)nc(N(C)C)n1
GI50 (DLD-1): > 100 µM (inactive)
GI50 (DMS-273): > 100 µM (inactive)
GI50 (HOP-18): > 100 µM (inactive)
GI50 (KM-20L2): > 100 µM (inactive)
GI50 (LXFL 529): 84.7 µM (inactive)
GI50 (M19-MEL): > 100 µM (inactive)
GI50 (SNB-78): > 100 µM (inactive)
GI50 (XF498): > 100 µM (inactive)

O=Cc1cc2sc(C=O)cc2s1
GI50 (DLD-1): > 100 µM (inactive)
GI50 (DMS-273): > 100 µM (inactive)
GI50 (KM-20L2): > 100 µM (inactive)
GI50 (LXFL 529): > 100 µM (inactive)
GI50 (M19-MEL): > 100 µM (inactive)
GI50 (RXF 631): > 100 µM (inactive)
GI50 (SNB-78): > 100 µM (inactive)
GI50 (XF498): > 100 µM (inactive)

CC1=NC(C(C)C)C(=O)O1 (stereo not given)
GI50 (DLD-1): 56.2 µM (inactive)
GI50 (DMS-273): 56 µM (inactive)
GI50 (HOP-18): > 100 µM (inactive)
GI50 (KM-20L2): > 100 µM (inactive)
GI50 (LXFL 529): > 100 µM (inactive)
GI50 (M19-MEL): > 100 µM (inactive)
GI50 (RXF 631): > 100 µM (inactive)
GI50 (SNB-78): > 100 µM (inactive)
GI50 (XF498): > 100 µM (inactive)

Cc1ccc2ccc(-c3ccccc3)c3c2c1C(=O)c1ccccc1C3=O
GI50 (DLD-1): > 100 µM (inactive)
GI50 (DMS-273): 53.8 µM (inactive)
GI50 (HOP-18): 54.6 µM (inactive)
GI50 (KM-20L2): > 100 µM (inactive)
GI50 (LXFL 529): > 100 µM (inactive)
GI50 (M19-MEL): 76.2 µM (inactive)
GI50 (SNB-78): > 100 µM (inactive)
GI50 (XF498): 15.8 µM (inactive)

CN1C(c2ccccc2)CC(=O)C(N)C1c1ccccc1 (stereo not given)
GI50 (DLD-1): 30.2 µM (inactive)
GI50 (DMS-273): 23.4 µM (inactive)
GI50 (HOP-18): 37.4 µM (inactive)
GI50 (KM-20L2): 34.8 µM (inactive)
GI50 (LXFL 529): 17.6 µM (inactive)
GI50 (M19-MEL): 22.7 µM (inactive)
GI50 (SNB-78): 23.7 µM (inactive)
GI50 (XF498): 14.7 µM (inactive)

CSC1=NC=CCN1C
GI50 (DLD-1): > 100 µM (inactive)
GI50 (DMS-273): > 100 µM (inactive)
GI50 (HOP-18): > 100 µM (inactive)
GI50 (KM-20L2): > 100 µM (inactive)
GI50 (LXFL 529): > 100 µM (inactive)
GI50 (M19-MEL): > 100 µM (inactive)

CN(C)CC(=O)N1CCc2c([nH]c3ccccc23)C1c1cccnc1 (stereo not given)
GI50 (DLD-1): > 100 µM (inactive)
GI50 (DMS-273): 0.0187 µM (active)
GI50 (HOP-18): > 100 µM (inactive)
GI50 (KM-20L2): > 100 µM (inactive)
GI50 (LXFL 529): > 100 µM (inactive)
GI50 (M19-MEL): > 100 µM (inactive)
GI50 (RXF 631): > 100 µM (inactive)
GI50 (SNB-78): > 100 µM (inactive)
GI50 (XF498): > 100 µM (inactive)

CCCCCCCCC(=O)CCCCCCCCC(=O)O
GI50 (DLD-1): 20.1 µM (inactive)
GI50 (DMS-273): 25.3 µM (inactive)
GI50 (HOP-18): 19.2 µM (inactive)
GI50 (KM-20L2): 25.9 µM (inactive)
GI50 (LXFL 529): 27 µM (inactive)
GI50 (M19-MEL): 47.5 µM (inactive)
GI50 (RXF 631): 21 µM (inactive)
GI50 (SNB-78): > 100 µM (inactive)
GI50 (XF498): 34.2 µM (inactive)

COC1CCCc2c(OC(C)=O)ccc(OC(C)=O)c21 (stereo not given)
GI50 (KM-20L2): > 100 µM (inactive)
GI50 (LXFL 529): > 100 µM (inactive)
GI50 (SNB-78): 36 µM (inactive)

O=S(O)CCCCSSCc1ccccc1CSSCCCCS(=O)O
GI50 (DLD-1): 24.6 µM (inactive)
GI50 (DMS-273): 21.1 µM (inactive)
GI50 (HOP-18): 14.7 µM (inactive)
GI50 (KM-20L2): 61 µM (inactive)
GI50 (LXFL 529): 11.4 µM (inactive)
GI50 (M19-MEL): 4.65 µM (inactive)
GI50 (RXF 631): 23.1 µM (inactive)
GI50 (XF498): 12 µM (inactive)

COc1ccc(C2Oc3cc(OC)c(O)c(C)c3[C@H]2C)cc1 (stereo not given in full)
GI50 (DLD-1): > 100 µM (inactive)
GI50 (DMS-273): 73.3 µM (inactive)
GI50 (HOP-18): 19 µM (inactive)
GI50 (KM-20L2): > 100 µM (inactive)
GI50 (LXFL 529): 71.6 µM (inactive)
GI50 (M19-MEL): > 100 µM (inactive)
GI50 (SNB-78): > 100 µM (inactive)

O=C(O)c1ccccc1NS(=O)(=O)c1ccc(Cl)cc1
GI50 (DLD-1): > 100 µM (inactive)
GI50 (DMS-273): > 100 µM (inactive)
GI50 (HOP-18): > 100 µM (inactive)
GI50 (KM-20L2): > 100 µM (inactive)
GI50 (LXFL 529): > 100 µM (inactive)
GI50 (M19-MEL): > 100 µM (inactive)
GI50 (SNB-78): > 100 µM (inactive)
GI50 (XF498): > 100 µM (inactive)

C=C1C(=O)O[C@H]2[C@H]1[C@H](OC(=O)/C(C)=C\C)CC(=C)[C@@H]1[C@H](O)[C@H]3O[C@@]3(C)[C@@]12O [EUPATUNDIN]
GI50 (DLD-1): > 100 µM (inactive)
GI50 (DMS-273): > 100 µM (inactive)
GI50 (HOP-18): > 100 µM (inactive)
GI50 (KM-20L2): > 100 µM (inactive)
GI50 (LXFL 529): > 100 µM (inactive)
GI50 (M19-MEL): > 100 µM (inactive)
GI50 (RXF 631): > 100 µM (inactive)
GI50 (SNB-78): > 100 µM (inactive)
GI50 (XF498): > 100 µM (inactive)
